Test results taken from PubChem BioAssay (NCI).
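Where inhibition never reached the appropriate level, the endpoint shown equals the highest concentration tested. Otherwise, values were interpolated linearly from a five-concentration, 48-hour dose response in 96-well plates. GI50: concentration for 50% inhibition of growth. TGI: total growth inhibition.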

Columns and labels:
Test in all cases: NCI-60 cell line screen, 48 h
[1] = test system: BT-549 breast
[2] = test system: CCRF-CEM leukemia
[3] = test system: IGROV1 ovarian
[4] = test system: OVCAR-4 ovarian
[5] = test system: RPMI-8226 leukemia
[6] = test system: SF-539 CNS
[7] = test system: SK-MEL-2 melanoma
[8] = test system: SNB-19 CNS
[9] = test system: TK-10 renal
[10] = test system: RXF 393 renal

Row | SMILES | GI50 [1] | TGI [1] | GI50 [2] | GI50 [3] | TGI [3] | GI50 [4] | TGI [4] | GI50 [5] | TGI [5] | GI50 [6] | TGI [6] | GI50 [7] | TGI [7] | GI50 [8] | GI50 [9] | TGI [9] | TGI [10] | TGI [8] | TGI [2] | GI50 [10]
1 | COc1cc2c(cc1OCCCN1CCN(CCCOc3cc4c(cc3OC)C(=O)N3CCC[C@H]3C=N4)CC1)C=CC(C)(C)O2 | 0.941 µM | 2.47 µM | 0.288 µM | 0.606 µM | > 100 µM | 1.56 µM | 3.53 µM | 0.232 µM | 0.699 µM | 1.26 µM | 2.51 µM | 1.58 µM | 2.97 µM | 2.22 µM | 1.46 µM | 2.87 µM | – | – | – | –
2 | COc1cc(/C=C2/SC(c3ccccc3)N(c3ccc(NC(C)=O)cc3)C2=O)cc(OC)c1OC (stereo not drawn) | – | > 100 µM | – | – | – | – | > 100 µM | – | > 100 µM | – | > 100 µM | – | > 100 µM | – | – | > 100 µM | > 100 µM | > 100 µM | – | –
3 | O=C1C=CC2CCC1C2 (stereo not drawn) | – | 73.3 µM | – | – | > 100 µM | – | – | – | > 100 µM | – | 90.2 µM | – | > 100 µM | – | – | > 100 µM | – | 96.3 µM | > 100 µM | –
4 | C[N+]1(C)CCCC1C(=O)[O-] (stereo not drawn) | – | – | – | – | > 100 µM | – | > 100 µM | – | > 100 µM | – | > 100 µM | – | > 100 µM | – | – | > 100 µM | > 100 µM | > 100 µM | > 100 µM | –
5 | FC(F)(F)c1ccc(-c2nc(-c3nc4cc(Cl)c(Cl)cc4[nH]3)c3ccccn23)cc1 | 8.69 µM | > 100 µM | > 100 µM | 16.1 µM | > 100 µM | 1.87 µM | 5.41 µM | > 100 µM | > 100 µM | – | – | 9.49 µM | 52.2 µM | 6.88 µM | 8.15 µM | > 100 µM | 5.99 µM | > 100 µM | > 100 µM | 2.26 µM
6 | Cc1ccc(S(=O)(=O)c2scc(-c3ccccc3)c2C)cc1 | – | > 100 µM | – | – | > 100 µM | – | > 100 µM | – | > 100 µM | – | > 100 µM | – | > 100 µM | – | – | > 100 µM | > 100 µM | > 100 µM | – | –
7 | COC(=O)[C@H](Cc1ccccc1)NC(=O)c1ccc(CNC(=O)/C=C/c2ccc(-c3ccccc3)cc2)cc1 | – | 97.2 µM | – | – | > 100 µM | – | > 100 µM | – | > 100 µM | – | – | – | > 100 µM | – | – | > 100 µM | 40.3 µM | 39.1 µM | > 100 µM | –
8 | COc1ccc(-c2nc(N)c(C#N)c3c2CCS(=O)(=O)c2ccc(C)cc2-3)cc1OC | – | > 100 µM | – | – | > 100 µM | – | > 100 µM | – | – | – | – | – | 85.2 µM | – | – | > 100 µM | – | > 100 µM | – | –
9 | COC(=O)C(=O)C(C(=O)Nc1cccc(C)c1C)C1Sc2ccccc2NC1=O (stereo not drawn) | – | – | – | – | > 25 µM | – | > 25 µM | – | > 25 µM | – | > 25 µM | – | 18.3 µM | – | – | > 25 µM | 23.8 µM | > 25 µM | > 25 µM | –
10 | c1csc(-c2ccc(-c3ccc(-c4ccc(-c5cccs5)s4)s3)s2)c1 | – | – | – | – | > 100 µM | – | – | – | > 100 µM | – | > 100 µM | – | – | – | – | > 100 µM | > 100 µM | – | 53.8 µM | –
